Here are results for 3 compounds from PubChem BioAssay AID2060600 (Molecular Pharmacology Branch, DTP, NCI, 2025).

For orientation: pIC50 means the IC50 on a negative log10 scale, so that one unit is a factor of ten. For orientation: viability, T/C means the result in the treated group divided by that in the control group, in per cent.

pIC50: −log10 of the molar value. Several values for one entry are separate records, joined by “and”; a condition that tells them apart may be missing. Identical values can stand only once.

This assay concerns 996289-038-R-J1-PDC complex spheroid viability. The assay can be described thus: Anticancer human tumor 996289-038-R-J1-PDC patient-derived colon adenocarcinoma cell line growth inhibition [CLK]. Particulars: for viability, T/C: stronger effect = lower value. An outline of the steps:
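Multi-cell-type spheroids combined patient-derived tumor cells with HUVEC endothelial cells and human mesenchymal stem cells. Paired agents were dosed in half-log steps down from about clinical Cmax, or from 10 microM where Cmax was unknown.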
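Further: spheroids exposed to the agents for 7 days before readout.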

Take `CC(C)CC(NC(=O)C(Cc1ccccc1)NC(=O)c1cnccn1)B(O)O` (stereo unspecified) + CN1CCN(c2cc(C(=O)Nc3cc4cc(-c5cnn(C)c5)ccc4cn3)ccn2)CC1: the negative-log IC50 (pIC50) is, setting by setting: (curve of first compound, second compound 0.0316 µM) 8.33; (curve of first compound, second compound 0.1 µM) 8.41; (curve of first compound, second compound 0.316 µM) 8.69; (curve of first compound, second compound 1 µM) greater than 9.02; (curve of first compound, second compound 3.16 µM) greater than 9.02; (curve of first compound, second compound 10 µM) greater than 9.02. The viability, T/C was 119% (second compound 0.0316 µM, first compound 0.000949 µM); 77.7% (second compound 0.0316 µM, first compound 0.003 µM); 6.22% (second compound 0.0316 µM, first compound 0.00949 µM); 4.45% (second compound 0.0316 µM, first compound 0.03 µM); 2.91% (second compound 0.0316 µM, first compound 0.0949 µM); 0.26% (second compound 0.0316 µM, first compound 0.3 µM). In addition, the viability, T/C was 97.5% (second compound 0.1 µM, first compound 0.000949 µM); 62.8% (second compound 0.1 µM, first compound 0.003 µM); 6.36% (second compound 0.1 µM, first compound 0.00949 µM); 0.64% (second compound 0.1 µM, first compound 0.03 µM); 0.55% (second compound 0.1 µM, first compound 0.0949 µM); 0.33% (second compound 0.1 µM, first compound 0.3 µM). The viability, T/C is, setting by setting: (second compound 0.316 µM, first compound 0.000949 µM) 70.5%; (second compound 0.316 µM, first compound 0.003 µM) 39.5%; (second compound 0.316 µM, first compound 0.00949 µM) 2.17%; (second compound 0.316 µM, first compound 0.03 µM) 2.47%; (second compound 0.316 µM, first compound 0.0949 µM) 0.77%; (second compound 0.316 µM, first compound 0.3 µM) 1.41%. The viability, T/C runs as follows: (second compound 1 µM, first compound 0.000949 µM) 2.7%; (second compound 1 µM, first compound 0.003 µM) 0.91%; (second compound 1 µM, first compound 0.00949 µM) 1.02%; (second compound 1 µM, first compound 0.03 µM) 0.56%; (second compound 1 µM, first compound 0.0949 µM) 0.24%; (second compound 1 µM, first compound 0.3 µM) 0.28%. The viability, T/C runs as follows: (second compound 3.16 µM, first compound 0.000949 µM) 0.51%; (second compound 3.16 µM, first compound 0.003 µM) 0.34%; (second compound 3.16 µM, first compound 0.00949 µM) 0.26%; (second compound 3.16 µM, first compound 0.03 µM) 0.67%; (second compound 3.16 µM, first compound 0.0949 µM) 0.47%; (second compound 3.16 µM, first compound 0.3 µM) 0.21%. For the same compound, the viability, T/C (second compound 10 µM, first compound 0.000949 µM) is 0.41%; the viability, T/C (second compound 10 µM, first compound 0.003 µM) was 1.36%; the viability, T/C (second compound 10 µM, first compound 0.00949 µM) is 1.47%; the viability, T/C (second compound 10 µM, first compound 0.03 µM) is 1.13%; the viability, T/C (second compound 10 µM, first compound 0.0949 µM) was 0.38%; the viability, T/C (second compound 10 µM, first compound 0.3 µM) was 0.22%.
Turning to `CC(=O)O[C@H]1C(=O)[C@@]2(C)[C@H]([C@H](OC(=O)c3ccccc3)[C@]3(O)C[C@H](OC(=O)[C@H](O)[C@@H](NC(=O)c4ccccc4)c4ccccc4)C(C)=C1C3(C)C)[C@]1(OC(C)=O)CO[C@@H]1C[C@@H]2O`, the viability, T/C was 94.2% and 106% (compound 0.0316 µM); 85.8% and 89.7% (compound 0.1 µM); 68.7% and 72.4% (compound 0.316 µM); 59.8% and 63.7% (compound 1 µM); 58.6% and 73% (compound 3.16 µM); 61.5% and 67.2% (compound 10 µM). Also, under “curve of compound”, the pIC50 is less than 5.00.
On to `COc1c(OCCCN2CCOCC2)ccc2c3n(c(=NC(=O)c4cnc(N)nc4)nc12)CCN3`, for which the viability, T/C was 87.7% and 97.2% (compound 0.00316 µM); 75.6% and 64.2% (compound 0.01 µM); 66.9% and 64.2% (compound 0.0316 µM); 45.9% and 46.1% (compound 0.1 µM); 31.9% and 30.1% (compound 0.316 µM); 20.4% and 22.4% (compound 1 µM). The pIC50 (curve of compound) was 7.08 and 7.19.
